Reference: article PMC3226492, “Isomer Profiles of Perfluorochemicals in Matched Maternal, Cord, and House Dust Samples: Manufacturing Sources and Transplacental Transfer” (Environmental Health Perspectives, 2011)
Where two headings read alike, the source gives them in different places.

Columns and labels:
[1] = Transplacental transfer efficiency (TTE): cord serum at delivery divided by maternal serum concentration, present study; format: in vivo, human; conditions: for TTE calculated from cord:maternal serum concentrations, arithmetic mean / TTE calculated from cord:maternal serum concentrations, maximum / TTE calculated from cord:maternal serum concentrations, median / TTE calculated from cord:maternal serum concentrations, minimum: cord serum at delivery / maternal serum at 15 weeks of gestation; for Mean cord:maternal serum concentration: Present study
[2] = Total PFC concentrations in maternal and cord sera by HPLC-MS/MS; format: in vivo, human; conditions: for mean concentration in cord serum: cord serum at delivery
Method: Blood collection. Samples (n = 20) analyzed in this study are a subset of the Chemicals, Health and Pregnancy (CHirP) cohort recruited in 2007–2008 in Vancouver (BC, Canada) ([Webster et al. 2011]). All participants provided informed consent. Laboratory personnel collected blood samples from pregnant volunteers in Vancouver at 15 weeks of gestation, and samples of cord blood (n = 20) were collected at delivery. After serum separation, all samples were stored at –80°C. Ethical clearance was obtained from the research ethics boards of the University of British Columbia, the University of Alberta, Health Canada, and the three participating hospitals.
Serum preparation. The method of [Kuklenyik et al. (2004)] was adapted for the extraction of PFCs from serum using a Rapid Trace system (Caliper Life Sciences, Hopkinton, MA, USA). The solid-phase extraction cartridge (Oasis-HLB, Waters, Milford, MA, USA; 60 mg/3 mL) was conditioned with 2 mL methanol followed by 2 mL of 0.1 M formic acid. Serum was prepared for extraction by mixing 3 mL of 0.1 M formic acid with 1.0 mL serum. After the addition of mass-labeled internal standards (10 ng each), the mixture was vortexed and sonicated for 20 min. Prepared serum was added to the column and washed successively with 3 mL of 0.1 M formic acid, 6 mL of 50% 0.1 M formic acid/50% methanol, and 1 mL of 1% ammonium hydroxide. The cartridge was drained by vacuum, and PFCs were eluted with 1.0 mL of 1% ammonium hydroxide in acetonitrile. The eluate was concentrated to 100 μL followed by the addition of 200 μL of 90% 20 mM acetic acid in 10% methanol. Method blanks containing calf serum, a calf serum sample spiked at 0.5 ng/mL of each PFC, and a human serum sample spiked at 10 ng/mL were analyzed with the study samples.
Total PFC analysis. For total PFC concentrations, separation was by HPLC on a 150-mm Synergi Hydro-RP C-18 column (Phenomenex, Torrance, CA, USA). Gradient elution at 600 μL/min used A [20 mM ammonium acetate (pH 4) in water] and B (methanol) mobile phases. Initial conditions were 60% A for 1 min, ramped to 20% A by 3 min, a 5-min hold, an increase to 100% B by 8.5 min, and a hold until 14 min, at which time initial conditions were reestablished. MS/MS data were collected on an Applied Biosystems API 3000 mass spectrometer (Applied Biosystems, Carlsbad, CA, USA) using electrospray ionization in negative-ion mode [for mean recoveries of total PFCs in serum and dust, see Supplemental Material, Table 1 (http://dx.doi.org/10.1289/ehp.1003265)].

[3] = cited from earlier work
[4] = maternal serum, 15 weeks of gestation
[5] = Canada, 2004–2005, n 101, ref Monroy et al. 2008
[6] = Denmark, 1996–2002, n 50, maternal serum sampled in the first trimester, ref Fei et al. 2007
[7] = Denmark, 1996–2002, n 50, maternal serum sampled in the second trimester, ref Fei et al. 2007
[8] = Faroe Islands, 2000, n 12, ref Needham et al. 2011
[9] = Germany, 2003, n 11, ref Midasch et al. 2007
[10] = Germany, 2007–2009, n 27, ref Fromme et al. 2010
[11] = Korea, 2007, n 20, ref Kim et al. 2011
[12] = South Africa, 2005–2006, n 58, ref Hanssen et al. 2010
[13] = Canada, 2007, n 20, maternal serum sampled in the second trimester
[14] = TTE adjusted from 15 weeks to time of delivery (~ 40 weeks) using data from Monroy et al. (2008)

| Compound | TTE calculated from cord:maternal serum concentrations, arithmetic mean [1] | TTE calculated from cord:maternal serum concentrations, maximum [1] | TTE calculated from cord:maternal serum concentrations, median [1] | TTE calculated from cord:maternal serum concentrations, minimum [1] | further results |
| --- | --- | --- | --- | --- | --- |
| O=C(O)C(F)(F)C(F)(F)C(F)(F)C(C(F)(F)F)(C(F)(F)F)C(F)(F)F [tb-PFOA] | 0.25 | 0.48 | 0.25 | 0.02 | – |
| O=C(O)C(F)(F)C(F)(F)C(F)(F)C(F)(C(F)(F)F)C(F)(F)C(F)(F)F (stereo not shown) [5m-PFOA] | 0.86 | 2.26 | 0.54 | 0.09 | TTE calculated from cord:maternal serum concentrations, maximum ([1]; listed as 5m-PFOA): > 1.0 |
| O=S(=O)(O)C(F)(F)C(F)(F)C(F)(F)C(F)(F)C(F)(F)C(F)(F)F [Total PFHxS, perfluorohexane sulfonate] | 0.41 | 0.56 | 0.38 | 0.29 | mean concentration in cord serum [2]: 0.7 ng/mL; concentration at 15 weeks of gestation ([2]; female, human, maternal serum, 15 weeks of gestation): 1.7 ng/mL |
| O=S(=O)(O)C(F)(F)C(F)(F)C(F)(F)C(F)(F)C(F)(F)C(F)(F)C(F)(F)C(F)(F)F [Total PFOS, perfluorooctane sulfonate] | 0.33 | 0.53 | 0.31 | 0.20 | mean concentration in cord serum [2]: 1.8 ng/mL; mean concentration in maternal serum [2, 4]: 5.5 ng/mL; Mean cord:maternal serum concentration [3, 5]: 0.45; Mean cord:maternal serum concentration [3, 6]: 0.29; Mean cord:maternal serum concentration [3, 7]: 0.34; Mean cord:maternal serum concentration [3, 8]: 0.34; Mean cord:maternal serum concentration [3, 9]: 0.60; Mean cord:maternal serum concentration [3, 10]: 0.30; Mean cord:maternal serum concentration ([3]; Japan, 2003, n 15, ref Inoue et al. 2004): 0.32; Mean cord:maternal serum concentration [3, 11]: 0.36; Mean cord:maternal serum concentration [3, 12]: 0.45; Mean cord:maternal serum concentration [1, 13]: 0.33; Mean cord:maternal serum concentration [1, 14]: 0.36 |
| O=C(O)C(F)(F)C(F)(F)C(F)(F)C(F)(F)C(F)(F)C(F)(F)C(F)(F)F [n-PFOA] | 0.62 | 1.00 | 0.61 | 0.26 | – |
| O=S(=O)(O)C(F)(C(F)(F)F)C(F)(F)C(F)(F)C(F)(F)C(F)(F)C(F)(F)C(F)(F)F (stereo not shown) [1m-PFOS] | 0.87 | 1.24 | 0.88 | 0.36 | – |
| O=C(O)C(F)(F)C(F)(F)C(F)(F)C(F)(F)C(F)(F)C(F)(F)C(F)(F)C(F)(F)F [Total PFNA, perfluorononanoate] | 0.41 | 0.78 | 0.38 | 0.13 | mean concentration in cord serum [2]: 0.4 ng/mL; mean concentration in maternal serum [2, 4]: 0.9 ng/mL |
| O=C(O)C(F)(F)C(F)(F)C(F)(F)C(F)(F)C(F)(C(F)(F)F)C(F)(F)F [Iso-PFOA] | 0.84 | 2.56 | 0.67 | 0.16 | – |
| O=C(O)C(F)(F)C(F)(F)C(F)(F)C(F)(F)C(F)(F)C(F)(F)C(F)(F)F [Total PFOA, perfluorooctanoate] | 0.61 | 0.96 | 0.63 | 0.32 | mean concentration in cord serum [2]: 1.1 ng/mL; mean concentration in maternal serum [2, 4]: 1.8 ng/mL; Mean cord:maternal serum concentration [3, 5]: 0.81; Mean cord:maternal serum concentration [3, 6]: 0.55; Mean cord:maternal serum concentration [3, 7]: 0.68; Mean cord:maternal serum concentration [3, 8]: 0.72; Mean cord:maternal serum concentration [3, 9]: 1.26; Mean cord:maternal serum concentration [3, 10]: 0.70; Mean cord:maternal serum concentration [3, 11]: 0.69; Mean cord:maternal serum concentration [3, 12]: 0.71; Mean cord:maternal serum concentration [1, 13]: 0.61; Mean cord:maternal serum concentration [1, 14]: 0.71 |
| O=C(O)C(F)(F)C(F)(F)C(F)(F)C(F)(F)C(F)(F)C(F)(F)C(F)(F)C(F)(F)C(F)(F)F [Total PFDA, perfluorodecanoate] | 0.34 | 1.10 | 0.23 | 0.00 | mean concentration in cord serum [2]: 0.1 ng/mL; mean concentration in maternal serum [2, 4]: 0.4 ng/mL |
| O=C(O)C(F)(F)C(F)(F)C(F)(C(F)(F)F)C(F)(F)C(F)(F)C(F)(F)F (stereo not shown) [4m-PFOA] | 0.64 | 1.29 | 0.68 | 0.09 | TTE calculated from cord:maternal serum concentrations, maximum ([1]; listed as 4m-PFOA): > 1.0 |
| O=S(=O)(O)C(F)(F)C(F)(F)C(F)(F)C(F)(F)C(F)(C(F)(F)F)C(F)(F)C(F)(F)F (stereo not shown) [5m-PFOS] | 0.53 | 0.93 | 0.52 | 0.25 | – |
| O=C(O)C(F)(F)C(F)(C(F)(F)F)C(F)(F)C(F)(F)C(F)(F)C(F)(F)F (stereo not shown) [3m-PFOA] | 0.76 | – | 0.68 | 0.07 | – |
| O=S(=O)(O)C(F)(F)C(F)(F)C(F)(C(F)(F)F)C(F)(F)C(F)(F)C(F)(F)C(F)(F)F (stereo not shown) [3m-PFOS] | 0.67 | 1.12 | 0.68 | 0.21 | – |
| O=S(=O)(O)C(F)(F)C(F)(F)C(F)(F)C(F)(F)C(F)(F)C(F)(C(F)(F)F)C(F)(F)F [Iso- PFOS] | 0.36 | 0.60 | 0.34 | 0.09 | – |
| O=S(=O)(O)C(F)(F)C(F)(F)C(F)(F)C(F)(F)C(F)(F)C(F)(F)C(F)(F)C(F)(F)F [n-PFOS, linear perfluorooctane sulfonate] | 0.33 | 0.58 | 0.30 | 0.10 | – |
| O=S(=O)(O)C(F)(F)C(F)(F)C(F)(F)C(F)(C(F)(F)F)C(F)(F)C(F)(F)C(F)(F)F (stereo not shown) [4m-PFOS] | 0.55 | 0.85 | 0.52 | 0.20 | – |
